Assay results published in PMC6533066 (Biomedical microdevices, 2019).
Where a name gives a salt, the structure may show the parent alone.

Experiments:
[1] = Wistar rats
[2] = in vivo; cited from earlier work
[3] = 1 mg/kg bolus iv (jugular vein), serum, HPLC-MS/MS, mean ± SD, n = 6 rats, SD
[4] = 1 mg/kg bolus iv, mean ± SD, n = 6 rats, SD

Structure (SMILES) | Cmax, Serum [1, 3] [ng/mL] | Tmax, Serum [1, 3] [min] | delay in time to peak vancomycin concentration (Tmax) in ISF compared to serum ([1]; 1 mg/kg bolus iv, Student's t-test p < 0.05) | AUC Ratio (ISF:serum) [1, 4] | Cmax Ratio (ISF:serum) [1, 4] | Tmax Ratio (ISF:serum) [1, 4] | detection in ISF [2]
CN[C@H](CC(C)C)C(=O)N[C@H]1C(=O)N[C@@H](CC(N)=O)C(=O)N[C@H]2C(=O)N[C@H]3C(=O)N[C@H](C(=O)N[C@H](C(=O)O)c4cc(O)cc(O)c4-c4cc3ccc4O)[C@H](O)c3ccc(c(Cl)c3)Oc3cc2cc(c3O[C@@H]2O[C@H](CO)[C@@H](O)[C@H](O)[C@H]2O[C@H]2C[C@](C)(N)[C@H](O)[C@H](C)O2)Oc2ccc(cc2Cl)[C@H]1O [vancomycin, Vancomycin hydrochloride] | 2600 ± 600 | 10 ± 0 | ~ 17 min | 1.3 ± 0.2 | 0.9 ± 0.2 | 2.7 ± 1.6 | –
O=C1NC(=O)C(c2ccccc2)(c2ccccc2)N1 [phenytoin] | – | – | – | – | – | – | not detectable
